Results reported in patent US10071097B2, “Molecular targets for the treatment of wounds, in particular chronic wounds” (URGO RECHERCHE INNOVATION ET DEVELOPPEMENT, priority 2013, dated 2018).

Legend:
Type in all cases: cell-based
[1] = tested on: Normal Human Dermal Fibroblast (NHDF); assay: fibroblast to myofibroblast differentiation of NHDF (markers αSMA, PI16, ACTC1 by RT-qPCR, αSMA positive cells)
Experimental: (§1) NHDF, isolated from human explants, were purchased from Promocell. NHDF were cultivated in DMEM-F12 (Invitrogen), supplemented with 10% FCS (Invitrogen, 5 μg/mL of insulin and 1 ng/mL of b-FGF (PromoKine)).
(§2) For experiments, cells were deprived of insulin and b-FGF during 48 hours. Then, the cells were cultivated on collagen coated culture plates in DMEM-F12, supplemented with 10% FCS, 10 ng/mL of TGF-β1 (Promocell) for 4 days. Four points were tested in order to appreciate the effect of exudate on fibroblast differentiation: untreated cells (T−E−), fibroblasts treated with TGF-β1 (T+E−), cells treated with exudate (T−E+) and finally fibroblasts treated with TGF-β1 and exudate at the same time (T+E+).
The efficiency of fibroblast differentiation was estimated by analyzing the expression of the myofibroblast marker alpha smooth muscle actin (αSMA).
(§3) After four days of experiment, treated fibroblasts were lysed with TRIzol Reagent (Invitrogen) and stored at −80° C. Then RNA was purified using chloroform and precipitated by isopropanol. Total RNA was quantified on the NanoDrop 2000c Spectrophotometer (Thermo Scientific). Reverse transcription of 500 ng total RNA to cDNA was done with oligot dT (Invitrogen) using SuperScript III RT (Invitrogen) and RNAse OUT (Invitrogen). The cDNA was store at −20° C.
(§4) Quantitative real-time PCR (RT-qPCR) was done using 5 μL of 1:20 diluted cDNA on the LightCycler480 system (Roche) using Maxima SYBR Green qPCR Master Mix (Fermentas). Forward and reverse primers for αSMA were designed by Eurofins (MWG, αSMA forward: […] (SEQ ID NO:9), αSMA reverse: […] (SEQ ID NO:10)) and a 100 μM stock was stored at −20° C. Forward and reverse primer pairs were used for each RT-qPCR reaction. The cycling conditions were as follows: an initial 95° C. for 10 minutes, followed by 45 cycles of 95° C. for 15 sec, 58° C. for 30 sec, 72° C. for 20 sec. LightCycler 480 SW 1.5 was used to evaluate the TM curves, to determine the Cp and to approximate the relative concentration for each amplification reaction.
Cells grown in collagen coated culture dishes, and treated as previously described, were fixed with 4% paraformaldehyde (PFA) in PBS for 15 minutes and permeabilized with 2.5% Triton X-100 (Euromedex, 2000-B) in PBS for 3 minutes. After saturation with 5% BSA in PBS, cells were stained for α-SMA (Abcam, ab5694) and for DNA (DAPI). As secondary antibody, CyTM3 conjugated anti rabbit (GE Healthcare, PA43004) was used. […] To estimate the percentage of fibroblast differentiation due to the different treatments, the total number of cells per field was determined by the DAPI, and myofibroblasts, differentiated fibroblasts, were counted using the α-SMA staining. […]

[2] = tested on: Normal Human Dermal Fibroblast (NHDF); assay: ex vivo model of chronic wounds: NHDF differentiation in presence of chronic wound exudate; conditions: TGFβ, exudate and Am580 versus same condition without Am580
Experimental: as §1
To collect exudates, two patients with mixed ulcers were recruited. For patient selection, it was decided to exclude any other comorbidity factor potentially involved in wound etiology: diabetes, peripheral arterial diseases, malnutrition. Exudates were collected from negative pressure therapy. All the exudates were centrifuged at 1,500×g for 3 minutes to remove cell debris. The supernatant was filtered and stored at −80° C. until use. Aliquots were used to determine protein concentration according to BCA method (Sigma).
as §2
For the chronic or non-healing wound model, chronic wound exudates were added to cell cultures (500 μg/mL of total proteins of exudate). […]

[3] = tested on: Normal Human Dermal Fibroblast (NHDF); assay: transcription factor mRNA levels in treated NHDF by RT-qPCR; conditions: Gant 61
Experimental: FIG. 6: Graphic representation of the TCF4 (a), EGR2 (b), SOX9 (c), STAT4 (d), FOXS1 (e), PPARG (f), MAF (g), MEOX2 (h), and SIX2 (i) mRNA levels after NHDF (donor A) treatment for 48 h (light grey) or 72 h (dark grey) either with mock siRNA or siRNA directed against different TF mRNA (SOX9, EGR2, TCF4, or FOXS1) and concomitantly treated with TGF-β. For all graphs, the mock siRNA treated with TGF-β (T+E) condition was set to 100% for each time of treatment (48 h and 72 h).
FIG. 10: Graphic representation of the αSMA, GLI1, SOX9 and MAF mRNA levels assessed by RT-qPCR of NHDFs treated by Gant 61.
as §3, §4

Compound: CC1(C)CCC(C)(C)c2cc(C(=O)Nc3ccc(C(=O)O)cc3)ccc21 [Am580, 4-[(5,6,7,8-Tetrahydro-5,5,8,8-tetramethyl-2-naphthalenyl)carboxamido]benzoic acid]
- differentiation followed with αSMA mRNA ([1]; Am580 5 nM in presence of TGFβ): increase differentiation
- differentiation followed with ACTC1 mRNA ([1]; Am580 in presence of TGFβ): increase differentiation
- differentiation followed with PI16 mRNA ([1]; Am580 in presence of TGFβ): increase differentiation
- PI16 mRNA [2]: increase
- αSMA mRNA [2]: increase

Compound: CN(C)c1ccccc1CN1CCCN(Cc2ccccc2N(C)C)C1c1ccncc1 [Gant 61]
- MAF mRNA [3]: decrease
- SOX9 mRNA [3]: increase
- expression of GLI1 (mRNA) [3]: upregulate
- differentiation shown by α-SMA mRNA ([1]; Gant 61 4 μM): upregulation
